# Reference: ChEMBL document CHEMBL1201862, “PubChem BioAssay data set” (2004)
#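 48-hour exposure; five concentrations; linearly interpolated endpoints. GI50 = concentration required for 50% inhibition of growth.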 Active and inactive are the calls of the source. No stated cut-off is given here; in the data, active = GI50 up to about 1.1 µM and inactive = higher.
# Assays:
# Experiment in all cases: inhibition of tumour cell growth, NCI panel, 48 h
# HOP-92 = test system: HOP-92
# OVCAR-5 = test system: OVCAR-5
# K562 = test system: K562
# NCI-H226 = test system: NCI-H226
# PC-3 = test system: PC-3
# SK-MEL-28 = test system: SK-MEL-28
# SF-539 = test system: SF-539
# Hs-578T = test system: Hs-578T
# ACHN = test system: ACHN
# A549 = test system: A549
# EKVX = test system: EKVX
# UO-31 = test system: UO-31
# MDA-MB-231 = test system: MDA-MB-231
# COLO 205 = test system: COLO 205
# SR = test system: SR
# NCI/ADR-RES = test system: NCI/ADR-RES
# SW-620 = test system: SW-620
# MCF7 = test system: MCF7
# MDA-N = test system: MDA-N
# TK-10 = test system: TK-10
SMILES,GI50 (HOP-92),GI50 (OVCAR-5),GI50 (K562),GI50 (NCI-H226),GI50 (PC-3),GI50 (SK-MEL-28),GI50 (SF-539),GI50 (Hs-578T),GI50 (ACHN),GI50 (A549),GI50 (EKVX),GI50 (UO-31),GI50 (MDA-MB-231),GI50 (COLO 205),GI50 (SR),GI50 (NCI/ADR-RES),GI50 (SW-620),GI50 (MCF7),GI50 (MDA-N),GI50 (TK-10)
O=C(O)C1CCCN1Cc1c[nH]c2ccccc12 (stereo not given),> 100 µM (inactive),> 100 µM (inactive),> 100 µM (inactive),> 100 µM (inactive),> 100 µM (inactive),> 100 µM (inactive),> 100 µM (inactive),> 100 µM (inactive),> 100 µM (inactive),> 100 µM (inactive),> 100 µM (inactive),> 100 µM (inactive),> 100 µM (inactive),> 100 µM (inactive),> 100 µM (inactive),> 100 µM (inactive),> 100 µM (inactive),> 100 µM (inactive),> 100 µM (inactive),> 100 µM (inactive)
O=C(CNc1ccc(Cl)cc1)Nn1c(-c2ccccc2)nc2ccccc2c1=O,5.07 µM (inactive),14.7 µM (inactive),3.35 µM (inactive),5.52 µM (inactive),12.6 µM (inactive),6.64 µM (inactive),4.37 µM (inactive),18.4 µM (inactive),8.89 µM (inactive),14.2 µM (inactive),18.1 µM (inactive),6.75 µM (inactive),4.79 µM (inactive),6.82 µM (inactive),3.28 µM (inactive),6.79 µM (inactive),5.12 µM (inactive),3.32 µM (inactive),7.38 µM (inactive),16.4 µM (inactive)
O=C1c2ccccc2C(=O)c2c(/C=C\N3CCCCC3)ccnc21,9.18 µM (inactive),5.38 µM (inactive),0.551 µM (active),2.7 µM (inactive),0.879 µM (active),1.11 µM (active),3.12 µM (inactive),1.23 µM (inactive),5.69 µM (inactive),2.12 µM (inactive),15.2 µM (inactive),2.01 µM (inactive),19.1 µM (inactive),3.51 µM (inactive),8.36 µM (inactive),3.6 µM (inactive),0.839 µM (active),0.869 µM (active),0.383 µM (active),15.2 µM (inactive)
COc1ccc(CN2C(=O)CCC/C=C\[C@H]2CI)cc1,12.8 µM (inactive),12.1 µM (inactive),6.97 µM (inactive),12.9 µM (inactive),8.07 µM (inactive),12.6 µM (inactive),13.6 µM (inactive),14.2 µM (inactive),14.3 µM (inactive),10 µM (inactive),10.7 µM (inactive),11.6 µM (inactive),11 µM (inactive),13.9 µM (inactive),11.5 µM (inactive),13.7 µM (inactive),11.6 µM (inactive),10.7 µM (inactive),13.1 µM (inactive),12.5 µM (inactive)
O=C1c2cscc2C(=O)C1(O)O,31.7 µM (inactive),> 100 µM (inactive),33 µM (inactive),> 100 µM (inactive),78 µM (inactive),> 100 µM (inactive),> 100 µM (inactive),> 100 µM (inactive),> 100 µM (inactive),> 100 µM (inactive),36.1 µM (inactive),27.3 µM (inactive),74.1 µM (inactive),19.2 µM (inactive),19.1 µM (inactive),> 100 µM (inactive),20.4 µM (inactive),> 100 µM (inactive),40.4 µM (inactive),> 100 µM (inactive)
CC(=O)OC1OC(c2ccoc2)C[C@@]12C1CCC3O[C@]3(C)[C@]1(C)[C@H](OC(C)=O)[C@H](OC(C)=O)[C@H]2C (stereo not given in full),> 37.5 µM (inactive),> 37.5 µM (inactive),> 37.5 µM (inactive),> 37.5 µM (inactive),> 37.5 µM (inactive),> 37.5 µM (inactive),> 37.5 µM (inactive),> 37.5 µM (inactive),> 37.5 µM (inactive),> 37.5 µM (inactive),> 37.5 µM (inactive),> 37.5 µM (inactive),> 37.5 µM (inactive),> 37.5 µM (inactive),18.1 µM (inactive),> 37.5 µM (inactive),> 37.5 µM (inactive),> 37.5 µM (inactive),> 37.5 µM (inactive),> 37.5 µM (inactive)
O=C(Cc1ccccc1)NCCCN(CCCCN(CCCNC(=O)Cc1ccccc1)C(=O)OCc1ccccc1)C(=O)OCc1ccccc1,> 25.2 µM (inactive),> 100 µM (inactive),7.24 µM (inactive),> 100 µM (inactive),7.45 µM (inactive),> 100 µM (inactive),> 100 µM (inactive),> 100 µM (inactive),> 21.6 µM (inactive),> 43 µM (inactive),> 49.8 µM (inactive),1.66 µM (inactive),> 100 µM (inactive),6.07 µM (inactive),30.4 µM (inactive),> 100 µM (inactive),> 100 µM (inactive),> 81.1 µM (inactive),> 100 µM (inactive),> 100 µM (inactive)
